According to paper PMC10905675, “INX-315, a Selective CDK2 Inhibitor, Induces Cell Cycle Arrest and Senescence in Solid Tumors” (Cancer Discovery, 2023):
Read-outs that look alike come from different tables or passages of the source.

Legend:
ST4316B PDX = test: PDX tumor growth; assay type: in vivo, mice; conditions: monotherapy; ribociclib 50 mg/kg per day
Protocol: PDX models were performed by Crown Biosciences (OV5398, GA0103, and GA0114) or XenoSTART (ST4316B). Tumor fragments from stock mice were harvested and implanted subcutaneously into the flank of NOD/SCID mice (OV5398, RRID:IMSR_JAX:001303), BALB/c nude mice (GA0103 and GA0114, RRID:IMSR_RJ:BALB-C-NUDE), or athymic nude mice (Crl:NU(NCr)-Foxn1nu, RRID:IMSR_CRL:490) (ST4316B). For CDX models, female athymic nude mice (Crl:NU(NCr)-Foxn1nu, RRID:IMSR_CRL:490) were inoculated with 1 × 10^7 50% Cultrex OVCAR3 cells in the flank. Experiments performed using MMTV-rtTA/tetO-HER2 mice were performed at the Peter MacCallum Cancer Centre. Tumor formation was induced and sustained in female mice with doxycycline as previously described ([33]). Randomization and treatment in all models began when median tumor volume reached a maximum of 300 mm^3.
Mice were treated via oral gavage. INX-315 was prepared weekly in 100% PEG400; abemaciclib was prepared as previously described ([33]) and ribociclib (Selleckchem, S7440) was prepared weekly in 0.5% methyl cellulose. To generate abemaciclib-resistant MMTV-rtTA/tetO-HER2 tumors, mice were treated continuously with abemaciclib at a dose of 75 mg/kg until tumors resumed growth as described in text. At this point and in all other MMTV-rtTA/tetO-HER2 mice experiments, mice were randomized into treatment groups and abemaciclib was administered to indicated groups at a dose of 50 mg/kg. In all MMTV-rtTA/tetO-HER2 mice experiments, INX-315 was administered at a dose of 50 mg/kg twice daily. For PDX model ST4316B, ribociclib was administered at 50 mg/kg per day.

CDK5/p25 = target: T1, CDK5/p25 (Homo sapiens, UniProt Q00535); test: Nanosyn biochemical assay; conditions: ATP at Km, value (SEM), read-out: IC50 (nmol/L) CDK5/p25
T1 construct: purchased BPS 40105
T1 sequence (Q00535 whole entry): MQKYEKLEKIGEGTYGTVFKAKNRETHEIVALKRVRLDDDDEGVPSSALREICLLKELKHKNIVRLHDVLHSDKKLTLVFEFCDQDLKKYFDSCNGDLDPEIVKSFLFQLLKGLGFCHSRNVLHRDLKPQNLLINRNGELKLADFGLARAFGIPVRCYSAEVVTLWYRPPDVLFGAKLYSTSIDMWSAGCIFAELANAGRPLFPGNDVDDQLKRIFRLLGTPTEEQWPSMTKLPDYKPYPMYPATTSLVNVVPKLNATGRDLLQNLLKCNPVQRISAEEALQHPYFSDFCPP
T1 sequence (Q15078 99-307 partner limits assumed): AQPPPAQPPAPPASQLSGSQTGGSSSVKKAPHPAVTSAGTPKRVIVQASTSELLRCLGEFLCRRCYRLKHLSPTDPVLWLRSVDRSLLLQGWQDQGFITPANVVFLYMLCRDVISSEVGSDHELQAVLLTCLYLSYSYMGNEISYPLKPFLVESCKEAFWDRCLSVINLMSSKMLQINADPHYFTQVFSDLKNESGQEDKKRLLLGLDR
Protocol: (§1) Compounds were tested in kinase assays (Nanosyn, Inc.). The assays were completed using microfluidic kinase detection technology (Caliper Assay Platform). The compounds were tested in 12-point dose–response format in singlicate at the Km for ATP. Phosphoacceptor substrate peptide concentration used was 1 µmol/L and staurosporine was used as the reference compound for all assays. Details for individual Nanosyn assays performed are provided here: […]

CDK7 = target: T2, CDK7 (Homo sapiens, UniProt P50613); test: Nanosyn biochemical assay; conditions: ATP at Km, value (SEM), read-out: IC50 (nmol/L) CDK7
T2 construct: purchased Carna 04-108
T2 sequence (P50613 whole entry): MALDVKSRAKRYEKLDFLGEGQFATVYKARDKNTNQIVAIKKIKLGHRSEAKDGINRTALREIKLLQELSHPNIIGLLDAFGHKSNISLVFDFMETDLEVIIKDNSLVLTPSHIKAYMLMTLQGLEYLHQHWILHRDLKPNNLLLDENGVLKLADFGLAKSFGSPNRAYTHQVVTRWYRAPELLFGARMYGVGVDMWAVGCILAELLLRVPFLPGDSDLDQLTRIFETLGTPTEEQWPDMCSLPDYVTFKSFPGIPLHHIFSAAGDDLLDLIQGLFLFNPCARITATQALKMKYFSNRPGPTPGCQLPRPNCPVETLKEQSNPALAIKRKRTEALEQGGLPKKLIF
T2 sequence (P51946 whole entry partner): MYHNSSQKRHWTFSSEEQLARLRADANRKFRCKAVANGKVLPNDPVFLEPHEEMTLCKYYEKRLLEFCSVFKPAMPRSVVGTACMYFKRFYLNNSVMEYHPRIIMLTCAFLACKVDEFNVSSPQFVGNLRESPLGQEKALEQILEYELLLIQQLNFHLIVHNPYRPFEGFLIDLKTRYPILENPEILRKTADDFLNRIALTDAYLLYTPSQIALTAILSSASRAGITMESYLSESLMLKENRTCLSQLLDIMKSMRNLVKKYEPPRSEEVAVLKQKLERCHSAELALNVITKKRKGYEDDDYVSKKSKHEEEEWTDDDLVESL
T2 sequence (P51948 whole entry partner): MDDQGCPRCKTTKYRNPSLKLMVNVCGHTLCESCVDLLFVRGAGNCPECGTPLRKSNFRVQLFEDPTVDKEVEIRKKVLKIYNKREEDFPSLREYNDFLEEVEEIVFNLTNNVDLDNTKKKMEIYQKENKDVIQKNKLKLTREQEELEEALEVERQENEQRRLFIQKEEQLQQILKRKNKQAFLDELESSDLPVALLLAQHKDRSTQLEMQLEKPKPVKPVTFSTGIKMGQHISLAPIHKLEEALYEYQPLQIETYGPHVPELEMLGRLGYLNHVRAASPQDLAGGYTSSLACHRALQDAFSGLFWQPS
Protocol: as §1

CDK5 = target: T3, CDK5 (Homo sapiens, UniProt Q00535); test: Nanosyn biochemical assay; conditions: ATP at Km, value (SEM), read-out: IC50 (nmol/L) CDK5
T3 construct: purchased ThermoFisher PV3000
T3 sequence (Q00535 whole entry): as the sequence (Q00535 whole entry) above
T3 sequence (Q15078 2-307 partner limits assumed): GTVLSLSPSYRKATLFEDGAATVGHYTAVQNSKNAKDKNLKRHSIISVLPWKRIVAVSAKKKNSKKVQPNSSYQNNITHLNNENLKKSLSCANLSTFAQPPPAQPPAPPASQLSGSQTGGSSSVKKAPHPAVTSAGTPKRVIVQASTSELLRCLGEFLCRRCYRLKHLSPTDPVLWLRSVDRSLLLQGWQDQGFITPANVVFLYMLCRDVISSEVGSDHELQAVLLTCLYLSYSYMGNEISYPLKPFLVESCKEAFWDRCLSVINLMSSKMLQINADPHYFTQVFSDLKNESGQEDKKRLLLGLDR
Protocol: as §1

[1] = Microsomal stability assay; assay type: in vitro ADME
Protocol: Microsomal stability was determined by Absorption Systems (Exton, PA). INX-315 was tested in mixed-gender human liver microsomes (Lot #1010420), male Sprague-Dawley rat liver microsomes (Lot #1910100), male CD-1 mouse liver microsomes (Lot #2010017), and male beagle dog liver microsomes (Lot #2010046) were purchased from XenoTech/BioIVT by Absorption Systems. The reaction mixture, minus NADPH, was prepared as described below. The test article was added into the reaction mixture at a final concentration of 1 µmol/L. The control compound, testosterone, was run simultaneously with the test article in a separate reaction. The reaction mixture (without cofactor) was equilibrated in a shaking water bath at 37°C for 5 minutes. The reaction was initiated by the addition of the cofactor, and the mixture was incubated in a shaking water bath at 37°C. Aliquots (100 µL) were withdrawn at 0, 10, 20, 30, and 60 minutes. Test article and testosterone samples were immediately combined with 400 µL of ice-cold 50/50 acetonitrile (ACN)/H2O containing 0.1% formic acid and internal standard to terminate the reaction. The samples were then mixed and centrifuged to precipitate proteins. All samples were assayed by LC-MS/MS using electrospray ionization. The peak area response ratio (PARR) of analyte to internal standard at each time point was compared to the PARR at time 0 to determine the percent remaining at each time point. Half-lives and clearance were calculated using GraphPad software (RRID:SCR_002798), fitting to a single-phase exponential decay equation.

CDK2/cyclin A2 = target: T4, CDK2/cyclin A2 (Homo sapiens, UniProt P24941); test: Nanosyn biochemical assay; conditions: ATP at Km, value (SEM), read-out: IC50 (nmol/L) CDK2/cyclin A2
T4 construct: purchased Millipore 14-448
Protocol: as §1

CDK2/cyclin E1 = target: T5, CDK2/cyclin E1 (Homo sapiens, UniProt P24941); test: Nanosyn biochemical assay; conditions: Nanosyn, ATP at Km; value (SEM); read-out: IC50 (nmol/L) CDK2/cyclin E1
T5 construct: purchased Millipore 14-475
Protocol: as §1

CDK6/cyclin D3 = target: T6, CDK6/cyclin D3 (Homo sapiens, UniProt Q00534); test: Nanosyn biochemical assay; conditions: value (SEM)
T6 construct: purchased Carna 04-107
T6 sequence (Q00534 whole entry): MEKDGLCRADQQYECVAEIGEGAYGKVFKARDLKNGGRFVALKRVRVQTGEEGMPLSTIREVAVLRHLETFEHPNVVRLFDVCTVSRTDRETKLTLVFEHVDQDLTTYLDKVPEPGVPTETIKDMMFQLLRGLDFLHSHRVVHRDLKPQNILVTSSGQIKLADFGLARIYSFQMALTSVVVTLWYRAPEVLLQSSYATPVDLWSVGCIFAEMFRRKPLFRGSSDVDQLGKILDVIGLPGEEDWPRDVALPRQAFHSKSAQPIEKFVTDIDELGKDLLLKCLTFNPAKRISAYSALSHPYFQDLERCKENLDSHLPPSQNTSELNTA
T6 sequence (P30281 whole entry partner): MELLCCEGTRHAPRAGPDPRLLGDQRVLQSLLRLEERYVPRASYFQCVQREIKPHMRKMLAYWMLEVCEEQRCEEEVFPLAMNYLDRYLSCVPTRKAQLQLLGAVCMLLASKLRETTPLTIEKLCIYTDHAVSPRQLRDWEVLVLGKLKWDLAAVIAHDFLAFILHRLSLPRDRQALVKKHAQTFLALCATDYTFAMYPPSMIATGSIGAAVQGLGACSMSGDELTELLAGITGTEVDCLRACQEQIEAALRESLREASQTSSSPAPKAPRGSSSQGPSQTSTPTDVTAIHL
Protocol: as §1

CDK1/cyclin B1 [2] = target: T7, CDK1/cyclin B1 (Homo sapiens, UniProt P06493); test: Nanosyn biochemical assay; conditions: value (SEM)
T7 construct: purchased Millipore 14-450M
T7 sequence (P06493 whole entry): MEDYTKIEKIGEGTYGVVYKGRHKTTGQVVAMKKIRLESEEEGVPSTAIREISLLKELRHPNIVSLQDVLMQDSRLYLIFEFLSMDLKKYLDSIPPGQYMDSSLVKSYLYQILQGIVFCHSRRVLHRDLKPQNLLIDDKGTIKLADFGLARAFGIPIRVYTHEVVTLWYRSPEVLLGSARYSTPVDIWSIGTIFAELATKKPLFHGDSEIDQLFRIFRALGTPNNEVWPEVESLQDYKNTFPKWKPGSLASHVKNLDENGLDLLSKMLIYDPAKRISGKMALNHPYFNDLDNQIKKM
T7 sequence (P14635 whole entry partner): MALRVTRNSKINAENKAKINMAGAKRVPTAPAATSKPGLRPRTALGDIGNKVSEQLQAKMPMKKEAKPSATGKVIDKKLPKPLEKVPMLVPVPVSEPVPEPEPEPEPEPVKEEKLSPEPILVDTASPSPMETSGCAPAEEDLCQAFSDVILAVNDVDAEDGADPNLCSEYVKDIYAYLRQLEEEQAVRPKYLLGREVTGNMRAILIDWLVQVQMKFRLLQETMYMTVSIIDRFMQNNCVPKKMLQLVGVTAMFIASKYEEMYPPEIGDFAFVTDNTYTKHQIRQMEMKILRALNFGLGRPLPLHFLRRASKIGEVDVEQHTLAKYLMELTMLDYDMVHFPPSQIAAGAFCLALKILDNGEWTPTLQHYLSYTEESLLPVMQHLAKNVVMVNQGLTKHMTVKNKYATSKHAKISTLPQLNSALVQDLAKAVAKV
Protocol: as §1

CDK9/cyclin T1 [3] = target: T8, CDK9/cyclin T1 (Homo sapiens, UniProt P50750); test: NanoBRET live cell target engagement; assay type: binding; conditions: Supp Fig S1E, NanoBRET; read-out: Intracellular IC50 (nM) CDK9/T1
T8 construct: purchased Carna 04-110
T8 sequence (P50750 whole entry): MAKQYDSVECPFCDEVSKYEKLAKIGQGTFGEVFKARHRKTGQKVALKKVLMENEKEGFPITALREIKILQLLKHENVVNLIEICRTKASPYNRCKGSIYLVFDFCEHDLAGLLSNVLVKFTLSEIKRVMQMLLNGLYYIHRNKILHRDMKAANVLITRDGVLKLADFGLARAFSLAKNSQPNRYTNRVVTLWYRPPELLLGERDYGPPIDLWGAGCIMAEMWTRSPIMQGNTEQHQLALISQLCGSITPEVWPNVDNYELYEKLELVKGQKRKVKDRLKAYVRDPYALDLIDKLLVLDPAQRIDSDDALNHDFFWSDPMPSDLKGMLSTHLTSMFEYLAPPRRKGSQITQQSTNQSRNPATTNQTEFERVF
T8 sequence (O60563 whole entry partner): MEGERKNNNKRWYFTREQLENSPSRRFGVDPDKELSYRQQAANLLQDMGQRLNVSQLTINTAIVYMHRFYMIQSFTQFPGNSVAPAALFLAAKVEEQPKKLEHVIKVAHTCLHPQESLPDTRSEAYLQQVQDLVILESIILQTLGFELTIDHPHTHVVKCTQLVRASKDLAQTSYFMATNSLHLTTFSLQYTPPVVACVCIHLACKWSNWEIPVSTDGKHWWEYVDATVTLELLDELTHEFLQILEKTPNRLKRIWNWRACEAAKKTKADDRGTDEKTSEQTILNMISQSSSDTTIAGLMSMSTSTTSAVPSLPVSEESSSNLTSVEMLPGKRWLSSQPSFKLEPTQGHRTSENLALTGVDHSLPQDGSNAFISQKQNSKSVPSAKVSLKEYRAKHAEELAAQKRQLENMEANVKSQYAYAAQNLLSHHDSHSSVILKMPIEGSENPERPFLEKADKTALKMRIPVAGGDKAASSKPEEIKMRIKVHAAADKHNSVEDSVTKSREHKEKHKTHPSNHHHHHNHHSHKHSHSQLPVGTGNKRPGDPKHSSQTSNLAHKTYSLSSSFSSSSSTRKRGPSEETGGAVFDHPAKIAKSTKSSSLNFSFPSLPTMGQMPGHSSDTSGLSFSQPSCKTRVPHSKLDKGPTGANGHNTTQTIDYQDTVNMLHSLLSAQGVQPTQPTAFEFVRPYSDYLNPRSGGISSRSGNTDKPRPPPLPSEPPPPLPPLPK
Protocol: (§2) Reaction Bio (Malvern, PA) conducted NanoBRET assays utilizing Promega NanoLuc technology with two replicates per experiment. The CDK2/E1 and CDK1/B1 values are the average of two separate experiments.
(§3) HEK293 cells were transfected using Opti-MEM without serum containing ratios of 9.0 µg/mL of Transfection Carrier DNA, 1.0 µg/mL of NanoLuc fusion vector DNA and 1 mL of Opti-MEM without phenol red. 30 µL of FuGENE HD transfection reagent was added to each milliliter of DNA mixture to form lipid:DNA complex. After incubation for 20 minutes at room temperature, 1 part lipid/DNA complex was added to 20 parts HEK293 cells in suspension. Cells were then plated and incubated overnight before being trypsinized and resuspended at 2 × 10^5 cells/mL. NanoBRET tracer reagent was added to cells at a ratio of 1 part tracer to 20 parts cell suspension. Cells were added to a 384-well plate and incubated for 1 hour. Plates were removed and incubated at room temperature for 15 minutes to equilibrate before 3x complete substrate plus inhibitor was added. After 2–3 minutes of incubation at room temperature, donor and acceptor wavelengths (460 nm and 600 nm, respectively) were measured using an Envision 2104 plate reader.

CDK1/cyclin B1 [4] = target: T7, CDK1/cyclin B1; test: NanoBRET live cell target engagement; assay type: binding; conditions: Supp Fig S1E, NanoBRET; read-out: Intracellular IC50 (nM) CDK1/B1
Protocol: as §2, §3

CDK9/cyclin T1 [5] = target: T8, CDK9/cyclin T1; test: Nanosyn biochemical assay; conditions: value (SEM)
Protocol: as §1

MCF7 Parent = test: Cell number dose-response; assay type: cell-based; conditions: Supp Fig S7D, 7 days, read-out: IC50 (nM) MCF7
Source text: (§4) MCF7 abemaciclib-resistant cells were generated by continuous treatment with abemaciclib at a concentration of 250 nmol/L for 72 days, followed by 500 nmol/L for 48 days. MCF7 fulvestrant-resistant cells were generated by continuous treatment of 100 nmol/L Fulvestrant for 125 days. MCF7 abemaciclib/fulvestrant-resistant cells were generated by treating abemaciclib-resistant cells continuously with 100 nmol/L fulvestrant for 137 days. T47D abemaciclib-resistant lines were generated by continuous treatment with abemaciclib at a concentration of 500 nmol/L for 73 days. T47D fulvestrant–resistant cells were generated by continuous treatment with 100 nmol/L fulvestrant for 68 days. T47D abemaciclib/fulvestrant-resistant cells were generated by treating abemaciclib-resistant cells with continuous treatment of 100 nmol/L Fulvestrant for 60 days. Resistant cell lines were cultured in medium containing drug(s) that the line is resistant to and further authenticated using short tandem repeat profiling.
(§5) An exception to this is MCF7PDRCl5-1 cells which were first cultured for 5 days without palbociclib then plated as described. MCF7PDRCl5-1 cells were treated with either a dose curve of the indicated CDK4/6i or a dose curve of INX-315 + 1 µmol/L of the indicated CDK4/6i. Cell viability was determined using the CellTiter-Glo assay (Promega, G9241) following manufacturer's instructions. Plates were processed on either BioTek Synergy2 multi-mode (Agilent) or ClarioSTAR (BMG Labtech) plate readers. T47D and MCF7 cells were seeded into […] plates using BioTek 406 (Aglient) and treated with a ten-point dose concentration from 10 µmol/L to 0.3 nmol/L of INX-315 for 2× doubling times. Plates were fixed with 4% PFA and stained with Rhodamine-Phalloidin (Bio-Trend, 00027) and DAPI (5 mg/mL, Invitrogen, catalog no. D1306). Plates were imaged using CellInsight CX7 LZR and DAPI-positive cells were counted using Thermo Fisher Scientific HCS Studio Cell Analysis Software.

MCF7 Abema-resistant = test: Cell number dose-response; assay type: cell-based; conditions: Supp Fig S7D, Abema-Resistant in 500 nM abemaciclib, 7 days; read-out: IC50 (nM) MCF7
Source text: as §4, §5

MCF7 Fulv-resistant = test: Cell number dose-response; assay type: cell-based; conditions: Supp Fig S7D, Fulv-Resistant in 100 nM fulvestrant, 7 days; read-out: IC50 (nM) MCF7
Source text: as §4, §5

[6] = tested on: all CCNE1-amplified lines; test: CellTiter Glo viability assay; assay type: cell-based; conditions: all CCNE1-amplified lines, INX-315 vs PF-07104091, 6 days
Protocol: as §5

[7] = tested on: palbociclib-resistant MCF7 cells; test: CellTiter Glo viability assay; assay type: cell-based; conditions: Homo sapiens, MCF7, Supp Fig S9B, CDK4/6 inhibitor monotherapy; read-out: IC50
Protocol: as §5

CDK3/cyclin E1 = target: T9, CDK3/cyclin E1 (Homo sapiens, UniProt Q00526); test: Nanosyn biochemical assay; conditions: ATP at Km, value (SEM), read-out: IC50 (nmol/L) CDK3/cyclin E1
T9 construct: purchased BPS 40103
Protocol: as §1

CDK4/cyclin D1 = target: T10, CDK4/cyclin D1 (Homo sapiens, UniProt P11802); test: Nanosyn biochemical assay; conditions: ATP at Km, value (SEM), read-out: IC50 (nmol/L) CDK4/cyclin D1
T10 construct: purchased ThermoFisher PV4400
Protocol: as §1

[8] = both sexes, human, liver microsomes, 1 µmol/L, 60 min incubation, read-out: Half-life
[9] = male, CD-1, liver microsomes, Mouse microsomes, 60 min incubation
[10] = male, Sprague-Dawley, rat, liver microsomes, 1 µmol/L, 60 min incubation, read-out: Half-life
[11] = male, beagle, dog, liver microsomes, 1 µmol/L, 60 min incubation, read-out: Half-life
[12] = ATP at Km, read-out: IC50 (nmol/L) CDK6/cyclin D3
[13] = ATP at Km, read-out: IC50 (nmol/L) CDK1/cyclin B1

Structure (SMILES)	IC50 (CDK5/p25)	IC50 (CDK7)	IC50 (CDK5)	half-life at 1 µmol/L [1, 8]	half-life at 1 µmol/L [1, 9]	half-life at 1 µmol/L [1, 10]	half-life at 1 µmol/L [1, 11]	IC50 (CDK2/cyclin A2)	IC50 (CDK2/cyclin E1)	IC50 (CDK6/cyclin D3; [12])	IC50 (CDK1/cyclin B1 [2]; [13])	other results
CN(C)C(=O)c1cc2cnc(Nc3ccc(N4CCNCC4)cn3)nc2n1C1CCCC1 [ribociclib, reference compound]	–	–	–	–	–	–	–	–	–	–	–	tumor growth (ST4316B PDX): slowed tumor growth modestly
CN1CCN(c2ccc(Nc3ncc4cc5n(c4n3)C3(CCCCC3)CNC5=O)nc2)CC1 [Trilaciclib, reference compound]	1710 nmol/L	4640 nmol/L	1240 nmol/L	> 60 min	28 min	> 60 min	5 min	–	–	–	–	half-life at 1 µmol/L ([1]; both sexes, human, liver microsomes, longer than the duration of the experiment, read-out: calculated half-life (in parenthesis)): 66 min; half-life at 1 µmol/L ([1]; male, Sprague-Dawley, rat, liver microsomes, longer than the duration of the experiment, read-out: calculated half-life (in parenthesis)): 73 min
C[C@@H]1NC(=O)C2(CCCCC2)n2c1cc1cnc(Nc3ccc(S(N)(=O)=O)cc3)nc12 [Compound C]	–	796 nmol/L	50.2 nmol/L	15.3 min	< 10 min	< 10 min	23.4 min	4 nmol/L	5 nmol/L	214 nmol/L	41 nmol/L	–
COCc1cc(C(=O)Nc2cc([C@H]3CC[C@@H](OC(=O)NC(C)C)C3)[nH]n2)n(C)n1 [PF-07104091, reference compound]	–	–	–	–	–	–	–	–	–	–	–	IC50 (CDK9/cyclin T1 [3]): > 10000 nM; IC50 (CDK1/cyclin B1 [4]): 1180 nM; IC50 (CDK9/cyclin T1 [5]; Supp Fig S1C, read-out: IC50 (nM) CDK9/cyclin T1): 363 nM; IC50 (CDK6/cyclin D3; Supp Fig S1C, read-out: IC50 (nM) CDK6/cyclin D3): > 1000 nmol/L; IC50 (CDK1/cyclin B1 [2]; Supp Fig S1C, read-out: IC50 (nM) CDK1/B1): 65.8 nmol/L; IC50 (MCF7 Parent; Parent in DMSO): 562 nM; IC50 (MCF7 Parent; Parent+Abema: 500 nM abemaciclib concurrently): 232 nM; IC50 (MCF7 Abema-resistant): 41.8 nM; IC50 (MCF7 Fulv-resistant): 508 nM; IC50 [6]: 125 nM
CC(C)N1CCN(c2ccc(Nc3ncc4cc5n(c4n3)C3(CCCCC3)CNC5=O)nc2)CC1 [Lerociclib, lerociclib, reference compound]	–	–	–	–	–	–	–	–	–	–	–	IC50 [7]: 1420 nM
NS(=O)(=O)c1ccc(Nc2ncc3cc4n(c3n2)C2(CCCCC2)CN=C4)cc1 [Compound B]	0.4 nmol/L	33.5 nmol/L	0.5 nmol/L	< 10 min	< 10 min	< 10 min	< 10 min	0.1 nmol/L	0.1 nmol/L	8.6 nmol/L	1.2 nmol/L	IC50 (CDK9/cyclin T1 [5]; ATP at Km, read-out: IC50 (nmol/L) CDK9/cyclin T1): 1.6 nM; IC50 (CDK3/cyclin E1): 0.5 nmol/L; IC50 (CDK4/cyclin D1): 3.6 nmol/L
